Test results published in patent US20250326772A1, “MRGPRX2 ANTAGONISTS, PHARMACEUTICAL COMPOSITION INCLUDING MRGPRX2 ANTAGONIST, AND METHOD OF TREATING MRGPRX2-MEDIATED DISEASE OR DISORDER” (KYORIN PHARMACEUTICAL CO., LTD., priority 2024, published 2025).

Biological target: T1, MRGPRX2 (Homo sapiens, UniProt Q96LB1)
T1 sequence (Q96LB1 1-330): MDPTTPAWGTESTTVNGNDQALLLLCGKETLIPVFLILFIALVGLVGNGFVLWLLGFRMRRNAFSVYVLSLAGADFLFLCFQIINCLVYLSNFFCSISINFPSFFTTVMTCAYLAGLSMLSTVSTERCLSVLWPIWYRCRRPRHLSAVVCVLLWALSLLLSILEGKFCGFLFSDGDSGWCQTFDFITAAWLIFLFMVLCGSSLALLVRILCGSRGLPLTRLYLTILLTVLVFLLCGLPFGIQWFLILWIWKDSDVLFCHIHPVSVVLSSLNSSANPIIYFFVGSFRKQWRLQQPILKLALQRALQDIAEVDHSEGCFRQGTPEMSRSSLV
Assay: MRGPRX2 reporter cell assay (NFAT-RE luciferase, Substance P stimulation)
Assay type: cell-based
Details: U2OS cells stably transfected with MRGPRX2 and NFAT-RE luciferase reporter; Substance P at EC80
Experimental: MRGPRX2 Reporter Cell Assays U2OS cells (ATCC, Manassas, VA) were stably transfected with MRGPRX2 expression clones (GeneCopoeia, Rockville, MD) and the pGL4.30 [luc2P/NFAT-RE/Hygro] reporter plasmid (Promega, Madison, WI). Clonal cells were maintained in Growth Media (McCoy's 5A, 10% FBS, 495 μg/ml hygromycin, 2 μg/ml puromycin, 100 units/ml penicillin, and 100 ug/ml streptomycin). The day before assay, cells were plated to white 384-well microplates at 3000 (MRGPRX2) cells/well in 10 ul Assay Media (McCoy's 5A, 2% charcoal dextran stripped FBS, 100 units/ml penicillin, and 100 ug/ml streptomycin) (Gibco, Thermo Fisher) and allowed to adhere overnight. The following day, serially diluted compound stocks were added directly to the cells (final DMSO concentration of 0.5%) and pre-incubated for 30 minutes at 37° C., 5% CO2. The final concentration of Substance P (Tocris, Minneapolis, MN, or PEPTIDE INSTITUTE, Osaka, Japan) corresponding to EC80 was added to stimulate the (MRGPRX2) cells. Cells were returned to the incubator for 6 hrs, after which 5 ul of ONE-GLO substrate (Promega) was added. Luminescence was read within 15 minutes (BioTek, Winooski, VT or infinite M1000Pro, Tecan Japan, Kanagawa, Japan). Percent inhibition for each test compound was calculated using the formula: […] where: • A=the luminescence count of the “test compound” well • B=the median luminescence count of the “Vehicle (0.5% DMSO)” wells • C═the median luminescence count of the “Vehicle (0.5% DMSO)+5 uM of substance P” wells The mean percent inhibition of each concentration of “test compound” was used to generate dose-response curves. IC50 values were calculated using a four-parameter logistic fit to the data using GraphPad Prism software. • +++: […]

IC50 [µM]	SMILES
0.003	Cn1cc(-c2c(-c3c(C(F)F)nn4c3OC[C@@H](NC(=O)C3CC3)C4)[nH]c3ncccc23)c(OC(F)F)n1 [EX. 559]
0.0012	COC(=O)N[C@@H]1COc2c(-c3[nH]c4ncccc4c3-c3cn(C)nc3OC(F)F)c(C(F)F)nn2C1 [EX. 571]

Same assay, conditions: U2OS cells stably transfected with MRGPRX2 and NFAT-RE luciferase reporter; Substance P at EC80; class symbols

SMILES	IC50 [µM]
CCc1nn2c(c1-c1[nH]c3ncccc3c1-c1cn(C)nc1OC(F)F)OC[C@@H](NS(C)(=O)=O)C2 [EX. 545]	< 0.01
Cn1cc(-c2c(-c3c(CF)nn4c3OCCC4)[nH]c3ncccc23)c(OC(F)F)n1 [EX. 423]	< 0.01
COc1ccc(F)cc1-c1[nH]c2ncccc2c1-c1cc(C)ccc1F [EX. 21, 2-(5-fluoro-2-methoxy-phenyl)-3-(2-fluoro-5-methyl-phenyl)-1H-pyrrolo[2,3-b]pyridine]	< 0.01
C[C@@H](O)C(=O)N[C@@H]1COc2c(-c3[nH]c4ncccc4c3-c3cn(C)nc3OC(F)F)c(C(F)F)nn2C1 [EX. 560]	< 0.01
Cn1cc(-c2c(-c3c(C(F)F)nn4c3OCCC4)[nH]c3ncccc23)c(C#N)n1 [EX. 401]	< 0.01
CN(C)CCO[C@@H]1COc2c(-c3[nH]c4ncccc4c3-c3cn(C)nc3OC(F)F)c(C(F)F)nn2C1 [EX. 538]	< 0.01
CC(=O)N[C@@H]1COc2c(-c3[nH]c4ncccc4c3-c3cn(C)nc3OC(F)F)c(C(F)F)nn2C1 [EX. 544]	< 0.01
Cn1cc(-c2c(-c3c(C(F)F)nn4c3OC[C@@H](NC(=O)C3CC3)C4)[nH]c3ncccc23)c(C#N)n1 [EX. 593, (S)—N-(3-(3-(3-cyano-1-methyl-1H-pyrazol-4-yl)-1H-pyrrolo[2,3-b]pyridin-2-yl)-2-(difluoromethyl)-6,7-dihydro-5H-pyrazolo[5,1-b] [1,3]oxazin-6-yl) cyclopropanecarboxamide]	< 0.01
O[C@@H]1COc2c(-c3[nH]c4ncccc4c3-c3csnc3OC(F)F)c(C(F)F)nn2C1 [EX. 461]	< 0.01
Cn1cc(-c2c(-c3cn(C)nc3C(F)F)[nH]c3ncccc23)c(OC(F)F)n1 [EX. 291]	0.01 to 0.1
C[C@@]1(O)COc2c(-c3[nH]c4ncccc4c3-c3cccnc3OC(F)F)c(C3CC3)nn2C1 [EX. 440]	< 0.01
Cn1cc(-c2c(-c3c(C(F)F)nn4c3OC[C@@H](NS(C)(=O)=O)C4)[nH]c3ncsc23)c(OC(F)F)n1 [EX. 520, (S)—N-(3-(6-(3-(difluoromethoxy)-1-methyl-1H-pyrazol-4-yl)-4H-pyrrolo[2,3-d]thiazol-5-yl)-2-(difluoromethyl)-6,7-dihydro-5H-pyrazolo[5,1-b] [1,3]oxazin-6-yl) methanesulfonamide]	< 0.01
Cn1cc(-c2c(-c3c(C(F)F)nn4c3OC[C@@H](OC(F)F)C4)[nH]c3ncccc23)c(OC(F)F)n1 [EX. 529]	< 0.01
CN[C@@H]1COc2c(-c3[nH]c4ncccc4c3-c3cn(C)nc3OC(F)F)c(C(F)F)nn2C1 [EX. 582, (S)-3-(3-(3-(difluoromethoxy)-1-methyl-1H-pyrazol-4-yl)-1H-pyrrolo[2,3-b]pyridin-2-yl)-2-(difluoromethyl)-N-methyl-6,7-dihydro-5H-pyrazolo[5,1-b] [1,3]oxazin-6-amine]	< 0.01
COC(=O)N[C@@H]1COc2c(-c3[nH]c4ncccc4c3-c3cccnc3OC(F)F)c(C(F)F)nn2C1 [EX. 512, methyl(S)-(3-(3-(2-(difluoromethoxy)pyridin-3-yl)-1H-10 pyrrolo[2,3-b]pyridin-2-yl)-2-(difluoromethyl)-6,7-dihydro-5H-pyrazolo[5,1-b] [1,3]oxazin-6-yl) carbamate]	< 0.01
Cn1cc(-c2c(-c3c(C(F)F)nn4c3OC[C@@H](OCC(N)=O)C4)[nH]c3ncccc23)c(OC(F)F)n1 [EX. 583, (S)-2-((3-(3-(3-(difluoromethoxy)-1-methyl-1H-pyrazol-4-yl)-1H-pyrrolo[2,3-b]pyridin-2-yl)-2-(difluoromethyl)-6,7-dihydro-5H-pyrazolo[5,1-b] [1,3]oxazin-6-yl)oxy) acetamide]	< 0.01

SMILES	IC50 [µM]
N#Cc1ccccc1-c1c(-c2c[nH]nc2C(F)(F)F)[nH]c2ncccc12 [EX. 94]	< 0.01
Cn1cc(-c2c(-c3c(C(F)F)nn4c3OC[C@@H](NCCO)C4)[nH]c3ncccc23)c(OC(F)F)n1 [EX. 558]	< 0.01
N#Cc1ccccc1-c1c(-c2csnc2C(F)F)[nH]c2ncccc12 [EX. 75]	< 0.01
Cc1ccnc2[nH]c(-c3c[nH]nc3C(F)(F)F)c(-c3ccccc3C#N)c12 [EX. 78]	< 0.01
Cn1cc(-c2c(-c3c(C(F)F)nn4c3OC[C@@H](NC(=O)[C@H]3C[C@H]3F)C4)[nH]c3ncccc23)c(OC(F)F)n1 (atropisomer, axis not shown) [EX. 548]	< 0.01
Cc1ccc(F)c(-c2c(-c3cn(C)nc3C(F)F)[nH]c3ncccc23)c1 [EX. 133]	< 0.01
Cn1cc(-c2c(-c3c(C(F)F)nn4c3OCC4)[nH]c3ncccc23)c(OC(F)F)n1 [EX. 432]	< 0.01
COc1ccccc1-c1[nH]c2ncccc2c1-c1cc(C)ccc1F [EX. 314]	< 0.01
Cn1cc(-c2c(-c3c(C(F)F)nn4c3OC[C@@H](NC(=O)C3CC3)C4)[nH]c3ncccc23)c(OC(F)F)n1 [EX. 559]	< 0.01
N#Cc1ccccc1-c1c(-c2cn[nH]c2C(F)F)[nH]c2nccc(F)c12 [EX. 81]	< 0.01
FC(F)Oc1n[nH]cc1-c1c(-c2c(C(F)F)nn3c2OCCC3)[nH]c2ncccc12 [EX. 406]	0.1 to 1
COC(=O)N[C@@H]1COc2c(-c3[nH]c4ncccc4c3-c3cn(C)nc3OC(F)F)c(C(F)F)nn2C1 [EX. 571]	< 0.01
[2H]c1c([2H])c([2H])c(-c2[nH]c3nccc(F)c3c2-c2ccccc2C#N)c(O)c1[2H] [EX. 45]	< 0.01
CS(=O)(=O)N[C@@H]1COc2c(-c3[nH]c4ncccc4c3-c3cccnc3OC(F)F)c(C3CC3)nn2C1 [EX. 456]	< 0.01
Cn1cc(-c2c(-c3c(C(F)F)nn4c3OC[C@@H](NC(=O)N3CC(O)C3)C4)[nH]c3ncccc23)c(OC(F)F)n1 [EX. 569]	< 0.01
Cn1cc(-c2c(-c3c(C(F)F)nn4c3OC[C@@H](NC(=O)C3(O)CC3)C4)[nH]c3ncccc23)c(OC(F)F)n1 [EX. 589]	< 0.01

Further lines, results first:

IC50 [µM]	SMILES
< 0.01	Cn1cc(-c2[nH]c3ncccc3c2-c2cc(Cl)ccc2C#N)c(C(F)F)n1 [EX. 375, 4-chloro-2-[2-[3-(difluoromethyl)-1-methyl-pyrazol-4-yl]-1 H-pyrrolo[2,3-b]pyridin-3-yl]benzonitrile]
< 0.01	[2H]C([2H])([2H])Oc1ccc(C#N)c(-c2c(-c3c(C)nn4cc(OC)cnc34)[nH]c3ncccc23)c1 [EX. 179]
< 0.01	[2H]C([2H])([2H])Oc1ccc(C#N)c(-c2c(-c3c(C(F)F)nn4c3OC[C@H](O)C4)[nH]c3ncccc23)c1 [EX. 370]
< 0.01	COc1ccccc1-c1[nH]c2ncccc2c1-c1cc(C)ccc1C#N [EX. 316]
< 0.01	Cc1cc(-c2c(-c3c(C(F)F)nn4c3OC[C@@H](F)C4)[nH]c3ncccc23)c(Cl)s1 [EX. 436]
< 0.01	COc1ccc(C#N)c(-c2c(-c3c(C)nn4c3OCC(N)C4)[nH]c3ncccc23)c1 (stereo not shown) [EX. 355]
< 0.01	N#Cc1ncccc1-c1c(-c2c(C(F)F)nn3c2OC[C@@H](O)C3)[nH]c2ncccc12 [EX. 470]
< 0.01	COc1ccc(C#N)c(-c2c(-c3c(C)nn4c(C)ccnc34)[nH]c3ncccc23)c1 [EX. 254]
< 0.01	Cc1cc(-c2c(-c3c(C(F)F)nn4c3OCC4)[nH]c3ncccc23)c(C#N)s1 [EX. 433]
0.01 to 0.1	Cc1cc(-c2c(-c3cnn4c3OCCC4)[nH]c3ncccc23)c(C#N)s1 [EX. 380]
< 0.01	COc1nsc(OC)c1-c1[nH]c2ncccc2c1-c1ccccc1C#N [EX. 137]
< 0.01	Cc1nn2c(c1-c1[nH]c3ncccc3c1-c1cccnc1OC(F)F)OC[C@@H](O)C2 [EX. 496]
< 0.01	Cc1cc(-c2c(-c3c(C4CC4)nn4c3OC[C@@H](NS(C)(=O)=O)C4)[nH]c3ncccc23)c(C#N)s1 [EX. 457]
< 0.01	Cn1cc(-c2c(-c3c(C(F)F)nn4c3OC[C@@H](OCC(C)(C)O)C4)[nH]c3ncccc23)c(C#N)n1 [EX. 501]
< 0.01	Cc1cc(-c2c(-c3c(C(F)F)nn4c3OC[C@@H](NS(C)(=O)=O)C4)[nH]c3ncccc23)c(C#N)s1 [EX. 525]
< 0.01	COc1ccc(C#N)c(-c2c(-c3c(C(F)F)nn4c3OC[C@H](NC(C)=O)C4)[nH]c3ncccc23)c1 [EX. 362]
< 0.01	[2H]C([2H])([2H])Oc1ccc(C#N)c(-c2c(-c3c(C)nn4c3NCC4)[nH]c3ncccc23)c1 [EX. 168]
< 0.01	Cn1cc(-c2c(-c3c(C(F)F)nn4c3OC[C@@H](OCCO)C4)[nH]c3ncccc23)c(C#N)n1 [EX. 500]
